Source: patent publication US8785468B2, “Phenylalanine amide derivatives useful for treating insulin-related diseases and conditions” (Amgen Inc., priority 2009, dated 2014)
pEC50: −log10 of the molar value. Where a name gives a salt, the structure may show the parent alone.

Target: T1, human receptor found in pancreatic islet cells (Homo sapiens, UniProt Q7Z601)
T1 sequence (Q7Z601 1-462): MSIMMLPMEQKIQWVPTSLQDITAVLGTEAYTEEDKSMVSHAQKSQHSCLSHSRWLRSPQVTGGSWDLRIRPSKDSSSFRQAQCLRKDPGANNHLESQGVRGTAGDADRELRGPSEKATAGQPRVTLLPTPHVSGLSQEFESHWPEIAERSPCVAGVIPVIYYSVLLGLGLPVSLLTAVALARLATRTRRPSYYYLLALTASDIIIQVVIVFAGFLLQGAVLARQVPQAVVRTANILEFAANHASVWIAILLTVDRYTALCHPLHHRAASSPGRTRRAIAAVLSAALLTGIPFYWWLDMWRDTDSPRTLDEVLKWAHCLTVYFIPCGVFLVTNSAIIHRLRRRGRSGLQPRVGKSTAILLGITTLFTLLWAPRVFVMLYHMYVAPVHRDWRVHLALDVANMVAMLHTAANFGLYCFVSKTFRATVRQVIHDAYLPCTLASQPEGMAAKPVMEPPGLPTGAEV
Assay: Activation of intracellular IP3 signaling in transfected cells (Activation Assay)
Assay type: cell-based
Conditions: calculated from IP3 concentration measurements in cells transfected with the human receptor
Method: Table 12 provides exemplary compounds that were prepared and assessed, following protocols known to those of skilled in the art, for activation of intracellular inositol trisphosphate (IP3) signaling pathways that lead to elevation of intracellular calcium concentration. EC50 values provided in Table 12 were calculated from IP3 concentration measurements in cells transfected with a human receptor found in pancreatic islet cells, inter alia.

| Compound | pEC50 |
| --- | --- |
| CNc1cc(-c2nnc(NC(=O)[C@H](Cc3ccccc3)NCc3cscn3)s2)ccn1 [Example 8.1] | > 7.30 |
| COC(=O)CNC(=O)c1cc(-c2ccncc2)cc2c1CCN2C(=O)[C@H](Cc1ccccc1)NCc1cscn1 [Example 77, (S)-Methyl 2-(1-(3-phenyl-2-(thiazol-4-ylmethylamino)propanoyl)-6-(pyridin-4-yl)indoline-4-carboxamido)acetate] | 6.00 to 7.00 |
| O=C(NCC1CC1)c1cc(NC(=O)[C@H](Cc2ccccc2)NCc2cscn2)cc(-c2ccncc2)c1 [Example 70, (S)—N-(Cyclopropylmethyl)-3-(3-phenyl-2-(thiazol-4-ylmethylamino)propanamido)-5-(pyridin-4-yl)benzamide] | 7.00 to 7.30 |
| O=C([C@H](Cc1ccccc1)NCc1cscn1)N1CCc2c(-c3n[nH]c(=S)o3)cc(-c3ccncc3)cc21 [Example 58, (S)-3-Phenyl-1-(6-(pyridin-4-yl)-4-(5-thioxo-4,5-dihydro-1,3,4-oxadiazol-2-yl)indolin-1-yl)-2-(thiazol-4-ylmethylamino)propan-1-one] | > 7.30 |
| O=C(Nc1cccc(-c2ccncc2)c1)[C@H](Cc1cccc(F)c1)NCC1CC1 [Example 34.12, (S)-2-(Cyclopropylmethylamino)-3-(3-fluorophenyl)-N-(3-(pyridin-4-yl)phenyl)propanamide] | 6.00 to 7.00 |
| Cc1cc(-c2nc(C)c(NC(=O)[C@H](Cc3ccc(F)cc3)NCc3cscn3)s2)ccn1 [Example 22, (2S)-3-(4-Fluorophenyl)-N-(4-methyl-2-(2-methylpyridin-4-yl)thiazol-5-yl)-2-(thiazol-4-ylmethylamino)propanamide] | 7.00 to 7.30 |
| COc1ncc(-c2ccncc2)cc1NC(=O)[C@H](Cc1ccccc1)NCc1ccon1 [Example 35.4, (S)-2-(Isoxazol-3-ylmethylamino)-N-(2-methoxy-5-(pyridin-4-yl)pyridin-3-yl)-3-phenylpropanamide] | 6.00 to 7.00 |
| N[C@@H](Cc1ccccc1)C(=O)Nc1cc(C(=O)O)cc(-c2ccncc2)c1 [Example 45.1, (S)-3-(2-Amino-3-phenylpropanamido)-5-(pyridin-4-yl)benzoic acid] | 5.00 to 6.00 |
| O=C([C@H](Cc1ccccc1)NCc1cscn1)N1CCc2c(-c3n[nH]c(=O)o3)cc(-c3ccncc3)cc21 [Example 57, (S)-5-(1-(3-Phenyl-2-(thiazol-4-ylmethylamino)propanoyl)-6-(pyridin-4-yl)indolin-4-yl)-1,3,4-oxadiazol-2(3H)-oneTFA salt] | 7.00 to 7.30 |
| CC(N[C@@H](Cc1ccccc1)C(=O)Nc1cccc(-c2ccncc2)c1)c1cnccn1 (stereo partly drawn) [Example 34.10, (2S)-3-Phenyl-2-(1-(pyrazin-2-yl)ethylamino)-N-(3-(pyridin-4-yl)phenyl)propanamide] | 6.00 to 7.00 |
| COc1ncc(-c2ccnc(C)c2)cc1NC(=O)[C@@H](N)Cc1ccccc1 [Example 35.6, (2S)-2-Amino-N-(2-methoxy-5-(2-methylpyridin-4-yl)pyridin-3-yl)-3-phenylpropanamide] | 5.00 to 6.00 |
| Cc1nnc(-c2cc(-c3ccncc3)cc3c2CCN3C(=O)[C@H](Cc2ccccc2)NCc2cscn2)[nH]1 [Example 69, (2S)-1-(4-(5-Methyl-4H-1,2,4-triazol-3-yl)-6-(pyridin-4-yl)indolin-1-yl)-3-phenyl-2-(thiazol-4-ylmethylamino)propan-1-one] | 7.00 to 7.30 |
| O=C(Nc1cccc(-c2ccncc2)c1)[C@H](Cc1ccccc1)NCc1cncs1 [Example 34.17, (S)-3-Phenyl-N-(3-(pyridin-4-yl)phenyl)-2-(thiazol-5-ylmethylamino)propanamide] | 6.00 to 7.00 |
| CN(C)CCNC(=O)c1cc(NC(=O)[C@H](Cc2ccccc2)NCc2cscn2)cc(-c2ccncc2)c1 [Example 74, (S)—N-(2-(dimethylamino)ethyl)-3-(3-phenyl-2-(thiazol-4-ylmethylamino)propanamido)-5-(pyridin-4-yl)benzamide bis trifluoroacetate salt] | 6.00 to 7.00 |
| Cc1cc(-c2ccc(OCCN(C)C)c(NC(=O)[C@H](Cc3ccccc3)NCc3cscn3)c2)ccn1 [Example 75, (2S)—N-(2-(2-(Dimethylamino)ethoxy)-5-(2-methylpyridin-4-yl)phenyl)-3-phenyl-2-(thiazol-4-ylmethylamino)propanamide trifluoroacetate] | 6.00 to 7.00 |
| COC(=O)c1cc(-c2ccnc(C)c2)cc2c1CCN2C(=O)[C@H](Cc1ccccc1)NCc1ccccn1 [Example 72, Methyl 6-(2-methylpyridin-4-yl)-1-((S)-3-phenyl-2-(pyridin-2-ylmethylamino)propanoyl)indoline-4-carboxylate] | 7.00 to 7.30 |
| Cc1cc(-c2cc(NC(=O)[C@H](Cc3ccccc3)NCc3ccccn3)cc(NS(C)(=O)=O)c2)ccn1 [Example 51.2, (2S)—N-(3-(2-Methylpyridin-4-yl)-5-(methylsulfonamido)phenyl)-3-phenyl-2-(pyridin-2-ylmethylamino)propanamide] | 7.00 to 7.30 |
| Cc1cc(-c2cc(NC(=O)[C@H](Cc3ccc(F)cc3)NCC(=O)O)[nH]n2)ccn1 [Example 21.2, 2-((S)-3-(4-Fluorophenyl)-1-(3-(2-methylpyridin-4-yl)-1H-pyrazol-5-ylamino)-1-oxopropan-2-ylamino)acetic acid dihydrochloride] | > 7.30 |
| O=C([C@H](Cc1ccccc1)NCc1cscn1)N1CCc2c(-c3nnco3)cc(-c3ccncc3)cc21 [Example 68, (2S)-1-(4-(1,3,4-Oxadiazol-2-yl)-6-(pyridin-4-yl)indolin-1-yl)-3-phenyl-2-(thiazol-4-ylmethylamino)propan-1-one] | 6.00 to 7.00 |
| Cc1ncc(CN[C@@H](Cc2ccccc2)C(=O)Nc2cccc(-c3ccncc3)c2)s1 [Example 34.18, (S)-2-((2-Methylthiazol-5-yl)methylamino)-3-phenyl-N-(3-(pyridin-4-yl)phenyl)propanamide] | 6.00 to 7.00 |
| COC(=O)COc1ccc(-c2ccnc(C)c2)cc1NC(=O)[C@H](Cc1ccccc1)NCc1cscn1 [Example 64, Methyl 2-(4-(2-methylpyridin-4-yl)-2-((S)-3-phenyl-2-(thiazol-4-ylmethylamino)propanamido)phenoxy)acetate] | 7.00 to 7.30 |
| O=C(Nc1cccc(-c2ccncc2)c1)[C@H](Cc1ccccc1)NCc1nccs1 [Example 34.16, (S)-3-Phenyl-N-(3-(pyridin-4-yl)phenyl)-2-(thiazol-2-ylmethylamino)propanamide] | 6.00 to 7.00 |

Next, values leading:

| pEC50 | Compound |
| --- | --- |
| 6.00 to 7.00 | COc1ncc(-c2ccnc(C)c2)cc1NC(=O)[C@H](Cc1ccccc1)NC1(c2ccccn2)CC1 [Example 41.1, (2S)—N-(2-Methoxy-5-(2-methylpyridin-4-yl)pyridin-3-yl)-3-phenyl-2-(1-(pyridin-2-yl)cyclopropylamino)propanamide] |
| 7.00 to 7.30 | O=C(Nc1cccc(-c2cc[nH]n2)c1)[C@H](Cc1ccccc1)NCc1cscn1 [Example 12, (2S)—N-(3-(1H-pyrazol-3-yl)phenyl)-3-phenyl-2-(thiazol-4-ylmethylamino)propanamide] |
| > 7.30 | Cc1cc(-c2cc(NC(=O)[C@H](Cc3ccc(F)cc3)NCc3cscn3)n(C)n2)ccn1 [Example 16.1, (2S)-3-(4-Fluorophenyl)-N-(1-methyl-3-(2-methylpyridin-4-yl)-1H-pyrazol-5-yl)-2-(thiazol-4-ylmethylamino)propanamide] |
| 7.00 to 7.30 | COc1ncc(-c2ccncc2)cc1NC(=O)[C@H](Cc1ccccc1)NC1(c2csc(C)n2)CC1 [Example 35.3, (S)—N-(2-Methoxy-5-(pyridin-4-yl)pyridin-3-yl)-2-(1-(2-methylthiazol-4-yl)cyclopropylamino)-3-phenylpropanamide] |
| > 7.30 | Cn1nc(-c2ccncc2)cc1NC(=O)[C@H](Cc1ccccc1)NCc1cscn1 [Example 17.2, (S)—N-(1-Methyl-3-(pyridin-4-yl)-1H-pyrazol-5-yl)-3-phenyl-2-(thiazol-4-ylmethylamino)propanamide] |
| > 7.30 | Cn1nc(-c2ccncc2)cc1NC(=O)[C@H](Cc1ccccc1)NCc1ccc(F)cn1 [Example 17.4, (S)-2-((5-Fluoropyridin-2-yl)methylamino)-N-(1-methyl-3-(pyridin-4-yl)-1H-pyrazol-5-yl)-3-phenylpropanamide] |
| 5.00 to 6.00 | Nc1cccc(-c2cccc(NC(=O)[C@H](Cc3ccccc3)NCc3cscn3)c2)c1 [Example 40, (S)—N-(3′-aminobiphenyl-3-yl)-3-phenyl-2-(thiazol-4-ylmethylamino)propanamide] |
| > 7.30 | CCn1nc(-c2ccncc2)cc1NC(=O)[C@H](Cc1ccc(F)cc1)NCc1cscn1 [Example 20.1, (S)—N-(1-ethyl-3-(pyridine-4-yl)-1H-pyrazol-5-yl)-3-(4-fluorophenyl)-2-(thiazol-4-ylmethlamino)propanamide] |
| 7.00 to 7.30 | Cc1cc(-c2cc(NC(=O)[C@H](Cc3ccccc3)NCc3cscn3)cc(NS(C)(=O)=O)c2)ccn1 [Example 51.1, (2S)—N-(3-(2-Methylpyridin-4-yl)-5-(methylsulfonamido)phenyl)-3-phenyl-2-(thiazol-4-ylmethylamino)propanamide] |
| > 7.30 | CNc1cc(-c2cc(NC(=O)[C@H](Cc3ccc(F)cc3)NCc3c[nH]nn3)[nH]n2)ccn1 [Example 18.2, (2S)-2-((1H-1,2,3-triazol-4-yl)methylamino)-3-(4-fluorophenyl)-N-(3-(2-(methylamino)pyridin-4-yl)-1H-pyrazol-5-yl)propanamide] |
